# Patent US20240285670A1, “THERAPEUTIC TREATMENT OF TUMORS BY BLOCKING THE HEME SYNTHESIS-EXPORT AXIS” (Università degli Studi di Torino, priority 2021, published 2024)
# What was measured:
# Caco2 cells = assay: TCA cycle flux in Caco2 cells; assay type: cell-based, human; settings: FLVCR1a-silenced vs scramble shRNA Caco2 cells
# From the text: (§1) TCA cycle flux is reported in the centre of the figure and expressed as pmol CO2/h/mg protein. Data represent mean±SEM, n=3. For statistical analyses, an unpaired Student's t-test was used. **=p<0.01. Moreover, TCA cycle enzymes activities are reported in boxes and expressed as mU/mg mitochondrial proteins. Data represent mean±SEM, n=3. For statistical analyses, an unpaired Student's t-test was used; *=p<0.05, ***=p<0.001. […] Results are expressed as pmol CO2/h/mg protein. Data represent mean±SEM, n=3. For statistical analyses, an unpaired Student's t-test was used; *=p<0.05, **=p<0.01.
# (A) TCA cycle flux in Caco2 cells expressing a scramble shRNA untreated or treated with 25 μM hemin for 2 hours. Moreover, the TCA cycle flux of untreated FLVCR1a-silenced Caco2 cells is reported for comparison. Results are expressed as pmol CO2/h/mg protein. Data represent mean±SEM, n=3. […] Results are expressed as pmol CO2/h/mg protein. […] Results are expressed as pmol CO2/h/mg protein. […]
# The glucose flux through TCA cycle was measured by radiolabeling cells with 2 μCi/ml [6-^14C]-glucose (55 mCi/mmol; PerkinElmer, Waltham, MA, USA, catalog n° NEC045X). […] The amount of glucose transformed into CO2 through the TCA cycle was calculated as described (Riganti et al., 2004) and expressed as pmoles CO2/h/mg cell proteins.
# C80 cells = assay: TCA cycle flux in C80 cells; assay type: cell-based, human; settings: FLVCR1a-silenced vs scramble shRNA C80 cells
# From the text: as §1
# The glucose flux through TCA cycle was measured by radiolabeling cells with 2 μCi/ml [6-^14C]-glucose (55 mCi/mmol; PerkinElmer, Waltham, MA, USA, catalog n° NEC045X). Cell suspensions were incubated for 1 hour in a closed experimental system to trap the ^14CO2 developed from [^14C]-glucose. The reaction was stopped by injecting 0.5 ml of 0.8N HClO4. The amount of glucose transformed into CO2 through the TCA cycle was calculated as described (Riganti et al., 2004) and expressed as pmoles CO2/h/mg cell proteins.
# ALAS1 = assay: qRT-PCR analysis of ALAS1 expression in SKCO1 cells; assay type: cell-based, human
# SH-SY5Y cells = assay: Heme content in SHSY-5Y cells; assay type: cell-based, human
# From the text: (A) Frequency (%) of patient tumors with overexpression of FLVCR1 compared to their matched normal tissues across multiple cancer types. The number of patients showing tumor FLVCR1 overexpression relative to the total number of patients examined are indicated in the plot. Data derive from the BioXpress (Wan et al., 2015). […] Transcript abundance, normalized to beta-actin mRNA expression (for SHSY-5Y cells) or to 18s mRNA (for BTECs), is expressed as a fold increase over a calibrator sample. Data represent mean±SEM, n=4. For statistical analyses, an unpaired Student's t-test was used; ***p<0.001. (C, E) Western blot analysis of FLVCR1a expression in SHSY-5Y cells (C) and BTECs (E). Vinculin expression is shown as a loading control. Band intensities were measured by densitometry and normalized to vinculin expression. […] Values are expressed as pmol heme/mg protein. […] Values are expressed as pmol heme/mg protein. […]
# (A) Heme content in SHSY5Y cells non-treated (NT) or treated with 5 mM ALA for 15 hours. Values are expressed as pmol heme/mg protein. […] Transcript abundance, normalized to beta-actin mRNA expression, is expressed as a fold increase over a calibrator sample. […] Transcript abundance, normalized to beta-actin mRNA expression, is expressed as a fold increase over a calibrator sample. […] Band intensities were measured by densitometry and normalized to beta-actin expression. […]
# lung tumor LLC cells = assay: LLC cell viability (CellTiter-Fluor) as readout of proliferation; assay type: cell-based, murine; settings: 5 mM ALA at day 0, no medium refresh
Molecule,total flux of the TCA cycle (Caco2 cells),TCA cycle flux (C80 cells),ALAS1 expression (qRT-PCR) (ALAS1; FLVCR1a-silenced vs scramble shRNA SKCO1 cells),"heme accumulation upon stimulation of de-novo heme biosynthesis (SH-SY5Y cells; FLVCR1a-silenced vs scramble shRNA, 5 mM 5-ALA for 15 hours)",cell proliferation (cell viability) (lung tumor LLC cells),"ALAS1 mRNA levels (ALAS1; SKCO1 cells, 5 mM ALA for 24 hours vs untreated)",heme content inside the cells (SH-SY5Y cells; 5 mM ALA for 15 hours vs non-treated)
"FLVCR1a shRNA: shRNA specifically down-regulating FLVCR1a without targeting FLVCR1b; pLKO.1 lentiviral clone TRCN0000059599, antisense SEQ ID No.: 2 (antisense TTGCTAATGATGCTGTACTGG; sense CCAGTACAGCATCATTAGCAA)",significantly up-regulated,Increased TCA cycle flux,reduced ALAS1 expression,higher heme accumulation than controls,–,–,–
"Cl.NCC(=O)CCC(=O)O [5-ALA, 5-Aminolevulinic acid hydrochloride]",–,–,–,–,significantly reduced,decreased,promoted heme accumulation inside the cells
